ChEMBL document CHEMBL2216752, “Carnitine palmitoyltransferase (CPT) modulators: a medicinal chemistry perspective on 35 years of research” (J Med Chem, 2011)

Key:
[1] = Toxicity in po dosed Sprague-Dawley rat assessed as hypoglycemic coma; type: organism-based; settings: in vivo
[2] = organism: Homo sapiens; experiment: Inhibition of carnitine palmitoyltransferase in human fibroblasts assessed as [14]CO2 production from [U-14C]glucose at 5 to 50 uM by radiometric assay; set-up: scale not given: the % may be the effect or the level left
[3] = test system: Sus scrofa; experiment: Reduction in blood glucose in STZ-treated diabetic pig at 10 to 40 umol/kg, iv measured 6 hrs post dose; type: functional; set-up: scale not given: the % may be the effect or the level left
[4] = test system: Rattus norvegicus; experiment: Reduction in blood glucose in fasted Sprague-Dawley rat at 0.6 to 60 umol/kg, po; type: functional; set-up: scale not given: the % may be the effect or the level left
[5] = organism: Homo sapiens; experiment: Inhibition of carnitine palmitoyltransferase in human fibroblasts assessed as [14]CO2 production from [1-14C]pyruvate at 5 to 50 uM by radiometric assay; set-up: scale not given: the % may be the effect or the level left
[6] = test system: Rattus norvegicus; experiment: Inhibition of CPT1 in fasted Sprague-Dawley rat liver mitochondria at 0.6 to 60 umol/kg, po measured 4 hrs post dose; type: functional
[7] = test system: Rattus norvegicus; experiment: Reduction in blood glucose in Sprague-Dawley rat at 600 umol/kg, po; type: functional; set-up: scale not given: the % may be the effect or the level left
[8] = test system: Rattus norvegicus; experiment: Reduction in total cholesterol level in fasted Sprague-Dawley rat at 8 to 300 umol/kg, po measured 24 hrs post dose; type: functional; set-up: scale not given: the % may be the effect or the level left
[9] = test system: Rattus norvegicus; experiment: Reduction in blood glucose in fasted Sprague-Dawley rat at 8 to 300 umol/kg, po measured 2 hrs post dose; type: functional; set-up: scale not given: the % may be the effect or the level left
[10] = test system: Rattus norvegicus; experiment: Inhibition of CPT1 in Sprague-Dawley rat liver mitochondria at 0.6 to 60 umol/kg, po measured 4 hrs post dose; type: functional
[11] = Inhibition of human FAO
[12] = test system: Rattus norvegicus; experiment: Increase in plasma FFAs level in fasted Sprague-Dawley rat at 8 to 300 umol/kg, po measured 2 to 4 hrs post dose; type: functional
[13] = test system: Rattus norvegicus; experiment: Reduction in blood glucose in adrenalectomized rat at 25 to 150 umol/kg, po; type: functional; set-up: scale not given: the % may be the effect or the level left
[14] = test system: Mus musculus; experiment: Reduction in FBG in db/db mouse at 19 umol/kg/day, po for 4 days measured 1 hr post dose after 16 hrs fasting; type: functional; set-up: scale not given: the % may be the effect or the level left
[15] = test system: Rattus norvegicus; experiment: Reduction in blood KB in fasted Sprague-Dawley rat at 0.6 to 60 umol/kg, po; type: functional; set-up: scale not given: the % may be the effect or the level left
[16] = test system: Cavia porcellus; experiment: Reduction in blood glucose in SPF-white inbred guinea pig at 7 to 56 umol/kg, po; type: functional
[17] = organism: Rattus norvegicus; experiment: Reduction in oxidation rate in rat liver mitochondria treated at 0.05% or 0.2% dose through food-admix for 12 weeks by polarographic oxygen uptake method; type: functional, organism-based; set-up: scale not given: the % may be the effect or the level left
[18] = test system: Rattus norvegicus; experiment: Increase in plasma TG level in fasted Sprague-Dawley rat at 8 to 300 umol/kg, po measured 2 to 4 hrs post dose; type: functional
[19] = test system: Mus musculus; experiment: Reduction in glucose AUC in db/db mouse at 19 umol/kg/day, po for 4 days administering last dose 1 hr before glucose load by OGTT test; type: functional; set-up: scale not given: the % may be the effect or the level left
[20] = test system: Rattus norvegicus; experiment: Reduction in blood glucose in po dosed fasted Sprague-Dawley rat; type: functional
[21] = test system: Rattus norvegicus; experiment: Reduction in blood KB level in fasted Sprague-Dawley rat at 8 to 300 umol/kg, po; type: functional; set-up: scale not given: the % may be the effect or the level left
[22] = organism: Rattus norvegicus; experiment: Reduction in oxidation rate in rat liver mitochondria treated at 0.05% or 0.2% dose through food-admix for 12 weeks; type: functional, organism-based; set-up: scale not given: the % may be the effect or the level left
[23] = test system: Rattus norvegicus; experiment: Increase in coronary flow in perfused rat heart at 5 mg/kg, sc administered as single dose administered 120 mins before start of perfusion; type: functional; settings: route subcutaneous
[24] = test system: Rattus norvegicus; experiment: Reduction in blood KB in Sprague-Dawley rat at 0.6 to 60 umol/kg, po; type: functional; set-up: scale not given: the % may be the effect or the level left
[25] = organism: Homo sapiens; experiment: Inhibition of carnitine palmitoyltransferase in human fibroblasts assessed as [14]CO2 production at 5 to 50 uM from [U-14C]palmitate by radiometric assay; set-up: scale not given: the % may be the effect or the level left
[26] = Inhibition of rat FAO
[27] = test system: Rattus norvegicus; experiment: Reduction in blood glucose in po dosed Sprague-Dawley rat; type: functional
[28] = Inhibition of carnitine palmitoyltransferase in hepatocytes from fasted rat assessed as oxidation of [U-14C]palmitate and production of acetoacetate and BHB; type: cell-based; settings: Hepatocyte

SMILES: O=C([O-])C1(CCCCCc2ccc(Cl)cc2)CO1.[Na+] (racemic)
- LD50 [1]: 486 mg/kg
- Activity [2]: 250%
- Activity [3]: <=35%
- Activity [4]: <=25%
- Activity [5]: 24%
- inhibition (INH) [6]: <=98%
- Activity [7]: 80%
- Activity [8]: 43%
- Activity [9]: <=50%
- inhibition (INH) [10]: 99%
- IC50 [11]: 10.4 µM
- Activity [12]: 300%
- Activity [13]: 34%
- Activity [14]: 60%
- Activity [15]: 78%
- ED50 [16]: 8.7 mg/kg
- Activity [17]: < 50%
- Activity [18]: <=290%
- Activity [19]: 50%
- ED50 [20]: 8.7 mg/kg
- Activity [21]: <=75%
- Activity [22]: < 80%
- Activity [23]: 50%
- Activity [24]: <=40%
- Activity [25]: 90%
- IC50 [26]: 95.9 µM
- ED50 [27]: 9 mg/kg
- IC50 [28]: 5 µM
